{
  "source": "paper PMC11063903",
  "about": "“Engineering a human P2X2 receptor with altered ligand selectivity in yeast” (The Journal of Biological Chemistry, 2024)",
  "target": "T1, human P2X2 receptor (Homo sapiens, UniProt Q9UBL9)",
  "T1 construct": "expressed in transfected cells; host or cells: S. cerevisiae BY4741 background, P2X2 genome-integrated under a galactose-inducible promoter",
  "T1 sequence (Q9UBL9 1-471)": "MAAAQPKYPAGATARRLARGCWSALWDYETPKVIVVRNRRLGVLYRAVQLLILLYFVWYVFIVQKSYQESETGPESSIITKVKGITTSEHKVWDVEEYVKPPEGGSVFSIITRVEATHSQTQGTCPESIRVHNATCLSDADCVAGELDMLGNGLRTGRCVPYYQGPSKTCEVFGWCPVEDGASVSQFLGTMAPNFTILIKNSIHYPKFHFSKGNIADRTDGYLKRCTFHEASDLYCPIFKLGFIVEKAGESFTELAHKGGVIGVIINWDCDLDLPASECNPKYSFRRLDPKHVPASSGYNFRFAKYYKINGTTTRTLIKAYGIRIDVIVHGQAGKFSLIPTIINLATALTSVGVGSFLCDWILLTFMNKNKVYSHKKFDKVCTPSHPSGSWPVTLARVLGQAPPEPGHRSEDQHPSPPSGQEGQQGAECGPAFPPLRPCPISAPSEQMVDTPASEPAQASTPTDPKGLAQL",
  "test": "GCaMP calcium assay of P2X2 expressed in yeast S. cerevisiae, agonist response",
  "format": "cell-based",
  "excerpt": "Although P2X receptors are expressed in many eukaryotic organisms including some fungi ([24]), they are not present in S. cerevisiae. For recombinant expression to yield functional P2X channels, receptor proteins must be correctly folded, assembled into trimers, and efficiently trafficked to the plasma membrane. To assess whether P2X ion channels could functionally gate in S. cerevisiae the canonical isoforms of P2X1-7 were co-expressed with aequorin, a calcium-activated photoprotein from the jellyfish Aequorea victoria.\nGenetic knockouts of the calnexin homolog (ΔCne1p) and vacuolar calcium transporter (Δ Vcx1p) (n = 3) were compared to the WT yeast strain (n = 2). […] Statistical analysis was performed using one-way ANOVA with Dunnett’s multiple comparisons test where ∗∗ is p ≤ 0.01. […] Yeast were injected with ATP at 21 s and onset rates from the last six points (40–48 s) were used for calculating the dose response in (D). E and F, kinetic and dose–response measurements of P2X2 with the GCaMP reporter with ATP (n = 4), partial agonist BzATP (n = 3), and agonist 2-chloro-ATP (n = 4). Figures (D and F) share the figure legend with (C). […] Suramin was pre-equilibrated with P2X2-yeast for 10 min and 5 μM ATP was injected.\nTo expand the assay throughput to accommodate several 96-well plates at a time, we required the acquisition of short-duration signals. Since GCaMP signals are typically measured in terms of ΔF/F0, where ΔF is Fmax-Fmin, and since the signal takes several minutes to reach Fmax, we instead attempted to correlate the rate of signal onset (rather than its amplitude) with channel activity.\nHaving optimized our yeast strains and assay throughput, we sought to further validate the function of human P2X2 in the yeast host.\nGCaMP assays were performed as follows. P2X2 GCaMP strains were designed with a bi-cistronic reporter, in which the GCaMP protein was followed by a 2A peptide and a mScarletI reporter ([53]). The co-translated mScarletI was designed to act as a control for plasmid loss, GCaMP breakage via nonsense mutation, and contamination. […] P2X2-GCaMP strains were cultured and induced as previously described. Samples were induced for 24 h to allow for the accumulation of the mature GCaMP protein. Cells were washed three times in 0.1 M MES/Tris buffer and resuspended with MES/Tris with supplemental calcium. Cells were loaded onto a black, clear bottom microplate and imaged on a FlexStation3 plate reader. Samples were imaged in “flex” mode. Samples were imaged for 48 s at an interval of 1.6 s. Fluorescence was measured with an excitation at 485 nm, and emission 525 nm. At the 21 s mark, 100 μl ligand solution was transferred to the cells. For strains with mScarlet, fluorescence was read with excitation 570 nm/emission 610 nm. Slopes were calculated from the last 6 points of measurement and were normalized to the positive control samples. Any replicate in which the mScarlet value was measured to be over 2 standard deviations less than the mean for that set was discarded from further analysis.",
  "data": [
    {"smiles": "Nc1ncnc2c1ncn2[C@@H]1O[C@H](COP(=O)(O)OP(=O)(O)OP(=O)(O)O)[C@@H](O)[C@H]1O", "note": "[ATP]", "values": [
      {"measurement": "maximum fluorescence compared to a negative control receptor", "setting": "GCaMP strain, saturating (500 μM) ATP, vs K81C K83C P2X2", "value": 12, "unit": "fold"},
      {"measurement": "pEC50 (signaling onset rate ΔF/ΔT)", "setting": "rapid GCaMP assay format, yeast, Fig. 1D", "value": "5.88 ± 0.056"},
      {"measurement": "EC50", "setting": "rapid GCaMP assay format, yeast, Fig. 1D, read-out: EC50 (signaling onset rate ΔF/ΔT)", "value": 1.3, "unit": "µM"}
    ]}
  ]
}
